The target of the test is T1, human ornithine aminotransferase (hOAT) (Homo sapiens, UniProt P04181).
T1 sequence (P04181 26-439 limits assumed): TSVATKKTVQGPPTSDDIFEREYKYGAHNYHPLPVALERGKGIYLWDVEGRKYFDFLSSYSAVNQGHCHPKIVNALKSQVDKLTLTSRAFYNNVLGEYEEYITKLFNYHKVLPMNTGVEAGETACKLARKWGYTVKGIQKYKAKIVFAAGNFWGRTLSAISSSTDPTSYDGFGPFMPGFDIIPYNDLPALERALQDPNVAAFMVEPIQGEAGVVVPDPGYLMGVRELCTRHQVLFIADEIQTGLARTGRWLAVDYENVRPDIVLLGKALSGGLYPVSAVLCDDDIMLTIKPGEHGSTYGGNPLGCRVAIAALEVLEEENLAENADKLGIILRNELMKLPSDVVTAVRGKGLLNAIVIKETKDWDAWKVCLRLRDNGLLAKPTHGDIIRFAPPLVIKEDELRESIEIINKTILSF
The experiment in a line: time-dependent inactivation kinetics. In kind it is biochemical. As to conditions: read-out: hOAT / KI; covalent; mechanism-based inactivator (kinact/KI analysis).

On to `N[C@H]1C[C@@H](C(=O)O)C[C@@H]1F` [compound 1, (1R,3S,4S)-3-amino-4-fluorocyclopentane-1-carboxylic acid], for which the KI (inactivation) was determined as 1400 ± 41 µM.
